These results are taken from BindingDB's records for doi:10.1016/j.bmcl.2006.08.060 (Lucknow University, 2006).

This experiment has as its system Enterococcus faecalis. The experiment in a line: Antibacterial activity against Streptococcus faecalis by broth microdilution technique. Background: Dilution methods test growth across graded concentrations, often in twofold steps.

Take `CNC(C)[C@@H]1CC[C@@H](N)[C@@H](O[C@H]2[C@H](O)[C@@H](O[C@H]3OC[C@](C)(O)[C@H](NC)[C@H]3O)[C@H](N)C[C@@H]2N)O1` (stereo partly specified) [Gentamicin]: half-maximal inhibition (IC50) was put at 445 nM.
